From patent publication US20060100287A1, “Insulin-like growth factor-1 secretagogue” (priority 2004, published 2006)

Tested on: IGF-1
Experiment: Test Example 3: action of various capsaicinoids on mouse IGF-1 (test solutions on back skin)
Type: in vivo
[1] = test solution containing 0.01% by mass in ethanol/physiological saline, 0.2 mL/cm^2 on back skin, 30 minutes after application, p<0.01 (FIG. 3, FIG. 4)

COc1cc(CNC(=O)CCCC/C=C/C(C)C)ccc1O [capsaicin, (6E)-N-[(4-hydroxy-3-methoxyphenyl)methyl]-8-methyl-6-nonenamide, reference compound]
amount of IGF-1 in the mouse back skin compared to the base preparation [1]: significantly elevated

COc1cc(COC(=O)CCCC/C=C/C(C)C)ccc1O [capsiate]
amount of IGF-1 in the mouse back skin compared to the base preparation [1]: significantly elevated

COc1cc(CNC(=O)CCCCCCC(C)C)ccc1O [dihydrocapsaicin]
amount of IGF-1 in the mouse back skin compared to the base preparation [1]: significantly elevated

COc1cc(COC(=O)CCCCCCC(C)C)ccc1O [dihydrocapsiate]
amount of IGF-1 in the mouse back skin compared to the base preparation [1]: significantly elevated

CCCCCCCCC(=O)NCc1ccc(O)c(OC)c1 [nonylic vanillylamide]
amount of IGF-1 in the mouse back skin compared to the base preparation (mouse, in vivo): significantly elevated

COc1cc(CNC(=O)CCCCCC(C)C)ccc1O [nordihydrocapsaicin]
amount of IGF-1 in the mouse back skin compared to the base preparation (mouse, in vivo): significantly elevated

COc1cc(COC(=O)CCCCCC(C)C)ccc1O [nordihydrocapsiate]
amount of IGF-1 in the mouse back skin compared to the base preparation [1]: significantly elevated
